Data from patent US11339171B2, “MDM2 inhibitors” (Gan & Lee Pharmaceuticals, priority 2017, dated 2022).

How the values were obtained:
[1] = molecular target: T1, MDM2 (Homo sapiens, UniProt Q00987); assay: Inhibition test of MDM2-P53 (GST-MDM2, Biotin-P53, Anti-GST-Tb, SA-XL665); assay type: binding
T1 construct: made in house
Summary of the method: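 HTRF-type assay using 4 nM GST-MDM2 (final), Biotin-P53, SA-XL665 and anti-GST-Tb in PBS with 0.1% BSA, 5 mM DTT and 1 mM AEBSF. Compounds in 5-fold serial dilutions over twelve points; incubation 90 min at 25° C with shaking before plate-reader read-out.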

[2] = tested on: human osteosarcoma cell line SJSA-1; assay: Inhibition of proliferation of human osteosarcoma cell line SJSA-1 (DAPI staining, In Cell Analyzer); details: Homo sapiens, SJSA-1, 72 h, read-out: IC50 (nM), inhibitory activity on proliferation of human osteosarcoma cell line SJSA-1, SJSA-1, incubated 72 h

T1 sequence (Q00987 whole entry): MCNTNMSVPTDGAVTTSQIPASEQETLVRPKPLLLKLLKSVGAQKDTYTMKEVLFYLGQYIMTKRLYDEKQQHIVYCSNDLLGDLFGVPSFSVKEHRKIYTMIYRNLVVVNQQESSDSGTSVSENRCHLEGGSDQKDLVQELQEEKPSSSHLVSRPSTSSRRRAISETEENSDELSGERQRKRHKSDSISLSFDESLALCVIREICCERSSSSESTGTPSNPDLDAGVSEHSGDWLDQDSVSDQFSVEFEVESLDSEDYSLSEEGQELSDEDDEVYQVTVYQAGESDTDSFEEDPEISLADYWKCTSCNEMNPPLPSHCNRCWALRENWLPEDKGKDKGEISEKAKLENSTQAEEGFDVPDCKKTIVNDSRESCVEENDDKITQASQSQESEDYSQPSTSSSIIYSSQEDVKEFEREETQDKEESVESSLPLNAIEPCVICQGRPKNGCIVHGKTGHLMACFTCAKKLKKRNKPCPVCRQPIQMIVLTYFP

SMILES: COc1nc(OCCF)ncc1-c1nc2c(n1C(C)C)[C@@]1(C(=O)Nc3cc(Cl)ccc31)N(c1cc(Cl)cnc1C)C2=O [Example S-170, (S)-6-chloro-5′-(5-chloro-2-methylpyridin-3-yl)-2′-(2-(2-fluoroethoxy)-4-methoxypyrimidin-5-yl)-3′-isopropyl-3′H-spiro[dihydroindole-3,4′-pyrrolo[3,4-d]imidazole]-2,6′(5′H)-dione]
- IC50 [1]: 1.86 nM
- IC50 [2]: 131 nM
